Tested on: Normal human primary fibroblasts
Test: Fibronectin release by UV-irradiated normal human primary fibroblasts (Human Magnetic Luminex Assay)
Assay type: cell-based
Experimental: Normal human primary fibroblasts were seeded in culture well plates at 200,000 cells/cm^2 with DMEM (Dulbecco's Modified Eagle Medium) culture medium. 24 hours later, culture medium was removed, cells were rinsed with PBS (Phosphate Buffered Saline), and fresh PBS was applied to the cells. Cells were then exposed to UV irradiation (from 300 to 400 nm) for a time to cause physical and/or chemical UV-induced change, without exposure to active ingredients. Immediately after irradiation, PBS was removed and the active ingredients creatine, palmitoylTripeptide-5 (Lys-Val-Lys) and bifida ferment lysate diluted in culture medium were applied for 72 hours. Cells were incubated at +37° C. with 5% CO2.
Quantification of fibronectin release was performed by using Human Magnetic Luminex Assays (ref: LXSAHM-03) according to the protocol described by the supplier. Results were expressed in pg/ml.

Row | Compound | increase in fibronectin production over either no treatment or creatine treatment alone (UV-irradiated fibroblasts, 72 hours treatment) | fibronectin production in irradiated cells (fibroblasts exposed to UV (300 to 400 nm), then actives in culture medium for 72 hours) | effect on fibronectin production/levels (in words) (UV-irradiated fibroblasts, 72 hours treatment, FIG. 1)
1 | palmitoylTripeptide-5 (Lys-Val-Lys) | 36.9% | 550K | 
2 | CN(CC(=O)O)C(=N)N [Creatine] |  |  | does not appear to exert a positive impact

Source: patent US20250213463A1, “TOPICAL COMPOSITION AND USES THEREOF” (COTY INC., priority 2021, published 2025)
